# US9604964B2, “Dihydropyrazole GPR40 modulators” (BRISTOL-MYERS SQUIBB COMPANY, priority 2012, dated 2017)
# Legend:
# human GPR40 [1] = target: T1, human GPR40 (Homo sapiens, UniProt O14842); assay: FDSS-based intracellular calcium assay (Human GPR40 in vitro assay); format: cell-based; set-up: 3xFLAG; expressed in transfected cells; conditions: intracellular Ca2+ response, cells expressing GPR40; read-out: hGPR40 EC50
# Procedure: FDSS-based Intracellular Calcium Assay
# Compounds are dissolved in DMSO and diluted to desired concentrations with assay buffer and added to the cells as 3× solution (20 μL per well). Run fluorescence/luminescence reader FDSS (Hamamatsu) to read intracellular Ca^2+ response.
# human GPR40 [2] = target: T1, human GPR40; assay: GPR40 IP-One HTRF assay in HEK293/GPR40 inducible cell lines; format: cell-based; set-up: expressed in transfected cells; conditions: HEK293 cells, tetracycline-inducible human GPR40, IP-One HTRF; read-out: hGPR40 IP1 EC50
# Procedure: GPR40 IP-One HTRF Assays in HEK293/GPR40 Inducible Cell Lines
# Human, mouse and rat GPR40-mediated intracellular IP-One HTRF assays were established using human embryonic kidney HEK293 cells stably transfected with a tetracycline-inducible human, mouse or rat GPR40 receptor. Cells were routinely cultured in growth medium containing DMEM (Gibco Cat. #:12430-047), 10% qualified FBS (Sigma, Cat. #: F2442), 200 μg/mL hygromycin (Invitrogen, Cat. #: 16087-010) and 1.5 μg/mL blasticidin (Invitrogen, Cat. # R210-01). About 12-15 million cells were passed into a T175 tissue culture flask (BD Falcon 353112) with growth medium and incubated for 16-18 hours (overnight) at 370 C with 5% CO2. The next day, assay medium was exchanged with growth medium containing 1000 ng/mL of tetracycline (Fluka Analytical, Cat. #87128) to induce GPR40 expression for 18-24 hours at […] incubator with 5% CO2. After induction, the cells were washed with PBS (Gibco, Cat. #14190-036) and detached with Cell Stripper (Cellgro, Cat. #25-056-CL). 10-20 mL growth medium were added to the flask and cells were collected in 50 mL tubes (Falcon, Cat.#:352098) and spun at 1000 RPM for 5 minutes. Culture medium was aspirated and the cells were resuspended in 10 mL of 1×IP-One Stimulation Buffer from the Cisbio IP-One kit (Cisbio, Cat. #62IPAPEJ). The cells were diluted to 1.4×10^6 cells/mL in Stimulation Buffer.
# Test compounds were 3-fold, 11-point serially diluted in DMSO in a REMP assay plate (Matrix Cat. #: 4307) by BioCel (Agilent). The compounds were transferred into an Echo plate (LABCYTE, Cat. #: LP-0200) and 20 nL of diluted compounds were transferred to an assay plate (proxi-plate from Perkin Elmer, Cat. #6008289) by Echo acoustic nano dispenser (LABCYTE, model ECHO550). 14 μL of the diluted cells were then added to the assay plate by Thermo (SN 836 330) Combi Drop and incubated at room temperature for 45 minutes. Then 3 μL of IP1 coupled to dye D2 from the Cisbio IP-One kit were added to the assay plate followed by 3 μL of Lumi4TM-Tb cryptate K from the kit. The plate was further incubated at room for 1 hour before reading on the Envision (Perkin Elmer Model2101) with an HTRF protocol. Activation data for the test compound over a range of concentrations was plotted as percentage activation of the test compound (100%=maximum response). After correcting for background [(sample read-mean of low control)/(mean of high control−mean of low control)] (low control is DMSO without any compound), EC50 values were determined. The EC50 is defined as the concentration of test compound which produces 50% of the maximal response and was quantified using the 4 parameter logistic equation to fit the data.
# T1 sequence (O14842 whole entry): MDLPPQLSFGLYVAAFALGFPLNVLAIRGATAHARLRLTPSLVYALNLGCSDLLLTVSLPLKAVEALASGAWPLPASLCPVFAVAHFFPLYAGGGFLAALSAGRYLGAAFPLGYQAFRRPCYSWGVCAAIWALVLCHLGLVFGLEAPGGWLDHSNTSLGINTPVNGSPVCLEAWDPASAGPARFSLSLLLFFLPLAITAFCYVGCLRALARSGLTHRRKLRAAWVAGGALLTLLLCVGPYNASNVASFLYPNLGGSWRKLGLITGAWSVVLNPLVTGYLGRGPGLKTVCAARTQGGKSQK
SMILES,EC50 (human GPR40 [1]) [nM],EC50 (human GPR40 [2]) [nM]
"CCOc1ccc(F)c(N2CC[C@@H](Oc3ccc(N4N=C(c5ccc(S(C)(=O)=O)cc5)[C@@H](C)[C@@H]4CC(=O)O)cc3)[C@H](C)C2)c1 [Example 98, 2-((4S,5S)-1-(4-(((3R,4R)-1-(5-ethoxy-2-fluorophenyl)-3-methylpiperidin-4-yl)oxy)phenyl)-4-methyl-3-(4-(methylsulfonyl)phenyl)-4,5-dihydro-1H-pyrazol-5-yl)acetic acid]",83,25
"CCOc1ccc(F)c(N2CCC(Oc3ccc(N4N=C(C(F)(F)F)[C@@H](C)[C@@H]4CC(=O)O)cc3)C(Cc3ccccc3)C2)c1 (single isomer, unassigned) [Example 28 (Isomer 2)]",1320,230
"COc1cccc(N2CCC(Cc3ccc(N4N=C(c5ccc(F)cc5)[C@@H](C)[C@@H]4CC(=O)O)cc3)CC2)c1 [Example 101, 2-((4S,5S)-3-(4-fluorophenyl)-1-(4-((1-(3-methoxyphenyl)piperidin-4-yl)methyl)phenyl)-4-methyl-4,5-dihydro-1H-pyrazol-5-yl)acetic acid]",281,40
"COc1cc(N2CC[C@@H](Oc3ccc(N4N=C(C(F)(F)F)[C@@H](C)[C@@H]4CC(=O)O)cc3)[C@H](CC#N)C2)c(Cl)cn1 [Example B2, 2-((4S,5S)-1-(4-(((3R,4R)-1-(5-chloro-2-methoxypyridin-4-yl)-3-(cyanomethyl)piperidin-4-yl)oxy)phenyl)-4-methyl-3-(trifluoromethyl)-4,5-dihydro-1H-pyrazol-5-yl)acetic acid]",586,362
"C[C@@H]1C(C(F)(F)F)=NN(c2ccc(OC3CCN(c4cc(O)ccc4F)CC3)cc2)[C@H]1CC(=O)O [Example 102, 2-((4S,5S)-1-(4-((1-(2-fluoro-5-hydroxyphenyl)piperidin-4-yl)oxy)phenyl)-4-methyl-3-(trifluoromethyl)-4,5-dihydro-1H-pyrazol-5-yl)acetic acid]",–,131
"COc1cc(N2CCC(Oc3ccc(N4N=C(C(F)(F)F)[C@@H](C)[C@@H]4CC(=O)O)cn3)C(C)C2)c(Cl)cn1 (single isomer, unassigned) [Example 103 Isomer 1]",533,–
"CCOc1ccc(F)c(N2CCC(Oc3ccc(N4N=C(C(F)(F)F)[C@@H](C)[C@@H]4CC(=O)O)cc3)C(OC)C2)c1 (single isomer, unassigned) [Example 31 (Isomer 1)]",473,13
"CCOc1ccc(F)c(N2CCC(Cc3ccc(N4N=C(C(F)(F)F)[C@@H](C)[C@@H]4CC(=O)O)cc3)C(C)C2)c1 (single isomer, unassigned) [Example 3 (Isomer 1)]",3220,–
"COc1cncc(N2CCC(Oc3ccc(N4N=C(C(F)(F)F)[C@@H](C)[C@@H]4CC(=O)O)cc3)CC2)n1 [Example 53, 2-((4S,5S)-1-(4-((1-(6-methoxypyrazin-2-yl)piperidin-4-yl)oxy)phenyl)-4-methyl-3-(trifluoromethyl)-4,5-dihydro-1H-pyrazol-5-yl)acetic acid]",4200,–
"COc1ccc(F)c(N2CC(COc3ccc(N4N=C(C(F)(F)F)[C@@H](C)[C@@H]4CC(=O)O)cc3)C2)c1 [Example B35, 2-((4S,5S)-1-(4-((1-(2-fluoro-5-methoxyphenyl)azetidin-3-yl)methoxy)phenyl)-4-methyl-3-(trifluoromethyl)-4,5-dihydro-1H-pyrazol-5-yl)acetic acid]",4760,–
"COc1cccc(N2CC(COc3ccc(N4N=C(C(F)(F)F)[C@@H](C)[C@@H]4CC(=O)O)cc3)C2)c1 [Example B32, 2-((4S,5S)-1-(4-((1-(3-Methoxyphenyl)azetidin-3-yl)methoxy)phenyl)-4-methyl-3-(trifluoromethyl)-4,5-dihydro-1H-pyrazol-5-yl)acetic acid]",1090,–
"CCOc1ccc(F)c(N2CCC(Oc3ccc(N4N=C(C#N)C(C)C4CC(=O)O)cc3)C(C)C2)c1 (single isomer, unassigned) [Example B7, Isomer 1, 2-(3-Cyano-1-(4-((1-(5-ethoxy-2-fluorophenyl)-3-methylpiperidin-4-yl)oxy)phenyl)-4-methyl-4,5-dihydro-1H-pyrazol-5-yl)acetic acid]",394,–
"COc1cc(N2CCC(Oc3ccc(N4N=C(C(F)(F)F)[C@@H](C)[C@@H]4CC(=O)O)cn3)C(C)C2)c(Cl)cn1 (single isomer, unassigned) [Example 103 Isomer 2]",96,43
"C[C@@H]1C(C(F)(F)F)=NN(c2ccc(OC3CCN(c4cc(-n5cccn5)ccc4F)CC3)cc2)[C@H]1CC(=O)O [Example B20, 2-((4S,5S)-1-(4-((1-(2-Fluoro-5-(1H-pyrazol-1-yl)phenyl)piperidin-4-yl)oxy)phenyl)-4-methyl-3-(trifluoromethyl)-4,5-dihydro-1H-pyrazol-5-yl)acetic acid]",4590,–
"CCOc1ccc(F)c(N2CCC(Oc3ccc(N4N=C(c5ccc(C(=O)O)cc5F)[C@@H](C)[C@@H]4CC(=O)O)cc3)CC2)c1 [Example B4, 4-((4S,5S)-5-(carboxymethyl)-1-(4-((1-(5-ethoxy-2-fluorophenyl)piperidin-4-yl)oxy)phenyl)-4-methyl-4,5-dihydro-1H-pyrazol-3-yl)-3-fluorobenzoic acid]",4950,–
"C[C@@H]1C(C(F)(F)F)=NN(c2ccc(OC3CCN(c4cc5c(cc4Cl)OCCO5)CC3)cc2)[C@H]1CC(=O)O [Example B15, 2-((4S,5S)-1-(4-((1-(7-Chloro-2,3-dihydrobenzo[b][1,4]dioxin-6-yl)piperidin-4-yl)oxy)phenyl)-4-methyl-3-(trifluoromethyl)-4,5-dihydro-1H-pyrazol-5-yl)acetic acid]",325,–
"C[C@@H]1C(C(F)(F)F)=NN(c2ccc(OC3CCN(S(=O)(=O)C4CCCC4)CC3)cc2)[C@H]1CC(=O)O [Example B24, 2-((4S,5S)-1-(4-((1-(Cyclopentylsulfonyl)piperidin-4-yl)oxy)phenyl)-4-methyl-3-(trifluoromethyl)-4,5-dihydro-1H-pyrazol-5-yl)acetic acid]",3600,–
"C[C@@H]1C(C(F)(F)F)=NN(c2ccc(OC3CCN(c4ccc(C(F)(F)F)cn4)CC3)cc2)[C@H]1CC(=O)O [Example 6, 2-((4S,5S)-4-methyl-3-(trifluoromethyl)-1-(4-((1-(5-(trifluoromethyl)pyridin-2-yl)piperidin-4-yl)oxy)phenyl)-4,5-dihydro-1H-pyrazol-5-yl)acetic acid]",7520,–
"C[C@@H]1C(C(F)(F)F)=NN(c2ccc(OC3CCN(C(=O)OC(C)(C)C)CC3)cc2)[C@H]1CC(=O)O [Example 15, 2-((4S,5S)-1-(4-((1-(tert-butoxycarbonyl)piperidin-4-yl)oxy)phenyl)-4-methyl-3-(trifluoromethyl)-4,5-dihydro-1H-pyrazol-5-yl)acetic acid]",1720,–
"COc1ccc(F)c(N2CCCC(Oc3ccc(N4N=C(C(F)(F)F)[C@@H](C)[C@@H]4CC(=O)O)cc3)C2)c1 (mixture of isomers) [Example B26, 2-((4S,5S)-1-(4-((1-(2-fluoro-5-methoxyphenyl)piperidin-3-yl)oxy)phenyl)-4-methyl-3-(trifluoromethyl)-4,5-dihydro-1H-pyrazol-5-yl)acetic acid]",4230,–
"C[C@@H]1C(C(F)(F)F)=NN(c2ccc(OCC3CN(S(=O)(=O)C4CCCCC4)C3)cc2)[C@H]1CC(=O)O [Example B31, 2-((4S,5S)-1-(4-((1-(Cyclohexylsulfonyl)azetidin-3-yl)methoxy)phenyl)-4-methyl-3-(trifluoromethyl)-4,5-dihydro-1H-pyrazol-5-yl)acetic acid]",3770,–
